Measured values from US11207312B2, “Metallo-beta-lactamase inhibitors and methods of use thereof” (priority 2017, dated 2021).
Values after ≈ are worked out from the molar mass of the structure shown.

Tests used:
MB5890 (OprD+, efflux-) = experiment: microbe, parasite or virus in culture; type: cell-based, Pseudomonas aeruginosa
Text: (§1) The strain background is Pseudomonas aeruginosa PAO1. A wild-type (M135919) and an isogenic strain in which multiple efflux pumps have been disrupted genetically were used. The MBL IMP-1, obtained from a clinical isolate was introduced into the strain pair by the following process:
(§2) The plasmid DNA was transformed into parental MB5919 (oprD+, efflux+, inducible AmpC) and MB5890 (oprD+, efflux−, inducible AmpC) isogenic strains by electroporation.
(§3) Minimum inhibitory concentrations of sentinel antibiotics were performed to quality control the new strains.

MB5919 (OprD+, efflux+) = experiment: microbe, parasite or virus in culture; type: cell-based, Pseudomonas aeruginosa
Text: as §1, §2, §3

[1] = tested on: MB9798 (efflux+ MB5919 Trans IMP1 plasmid); experiment: microbe, parasite or virus in culture; type: cell-based, Pseudomonas aeruginosa
Text: as §1, §2, §3

[2] = tested on: MB9799 (efflux- MB5890 Trans IMP1 plasmid); experiment: microbe, parasite or virus in culture; type: cell-based, Pseudomonas aeruginosa
Text: as §1, §2, §3

[3] = tested on: MB9861 (Efflux+ MB5919 Trans pFlp-Vim1 plasmid); experiment: microbe, parasite or virus in culture; type: cell-based, Pseudomonas aeruginosa
[4] = tested on: MB9862 (efflux- MB5890 trans pFlp-Vim1); experiment: microbe, parasite or virus in culture; type: cell-based, Pseudomonas aeruginosa
[5] = tested on: efflux+ MB5919 Trans pFlp-Vim2 plasmid; experiment: microbe, parasite or virus in culture; type: cell-based, Pseudomonas aeruginosa
[6] = tested on: efflux- MB5890 Trans pFlp-Vim2 plasmid; experiment: microbe, parasite or virus in culture; type: cell-based, Pseudomonas aeruginosa
NDM-1 = NDM-1 (Klebsiella pneumoniae, UniProt C7C422); experiment: biochemical; type: biochemical; details: CCF2-FA fluorescence assay, 2 hours at 25° C.
Chain of NDM-1 (C7C422 whole entry, looked up, species assumed): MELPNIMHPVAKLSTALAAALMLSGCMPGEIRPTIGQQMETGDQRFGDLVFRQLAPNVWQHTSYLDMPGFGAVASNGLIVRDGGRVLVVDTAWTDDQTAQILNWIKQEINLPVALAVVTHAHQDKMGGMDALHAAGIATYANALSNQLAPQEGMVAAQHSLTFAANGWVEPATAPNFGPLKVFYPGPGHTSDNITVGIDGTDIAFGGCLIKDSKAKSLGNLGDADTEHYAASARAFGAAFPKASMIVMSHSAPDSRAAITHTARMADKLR
Outline: (§4)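 Metallo-β-lactamase activity read by fluorescence against CCF2-FA (1.25 μM final) in 100 mM KH2PO4 pH 7 with 0.005% Tween-20 and 10 μM ZnSO4; enzyme final at 1 pM NDM-1, 2 pM IMP-1 or 30 pM VIM-1. Inhibitor at 20 to 0.00063 μM, 2 h at 25° C; IC50 by 4-parameter fit.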

IMP-1 = IMP-1 (Serratia marcescens, UniProt P52699); experiment: biochemical; details: CCF2-FA fluorescence assay, 2 hours at 25° C.; read-out: IMP1 IC50
Chain of IMP-1 (P52699 whole entry, looked up, species assumed): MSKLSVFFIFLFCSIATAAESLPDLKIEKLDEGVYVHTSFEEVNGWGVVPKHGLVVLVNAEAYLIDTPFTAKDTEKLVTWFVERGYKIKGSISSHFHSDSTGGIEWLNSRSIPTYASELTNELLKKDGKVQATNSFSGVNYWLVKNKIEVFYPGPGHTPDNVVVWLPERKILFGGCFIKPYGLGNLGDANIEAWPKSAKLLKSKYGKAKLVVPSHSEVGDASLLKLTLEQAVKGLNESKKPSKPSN
Outline: as §4

VIM-1 = VIM-1 (Pseudomonas aeruginosa (strain ATCC 15692 / DSM 22644 / CIP 104116 / JCM 14847 / LMG 12228 / 1C / PRS 101 / PAO1), UniProt A0A0F7KYQ8); experiment: biochemical; details: CCF2-FA fluorescence assay, 2 hours at 25° C.; read-out: VIM1 IC50
Outline: as §4

VIM-2 = VIM-2 (Escherichia coli, UniProt Q5U7L7); experiment: biochemical; details: CCF2-FA fluorescence assay; read-out: VIM2 IC50
[7] = tested on: Escherichia coli expressing NDM-1 (CLB30016); type: cell-based; details: with imipenem 1 μg/ml; 95% inhibition of bacterial growth
Outline: (§5)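 Synergy with imipenem at a fixed 1 μg/ml was scored by absorbance following 22–24 h incubation at 35 °C; the potentiating concentration (MITC95) was the lowest giving 95% growth inhibition.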

[8] = tested on: Klebsiella pneumoniae expressing VIM-1 (IHMA599644); type: cell-based; details: with imipenem 1 μg/ml; 95% inhibition of bacterial growth
Outline: as §5

[9] = tested on: Serratia marcescens expressing IMP-1 (CL5741); type: cell-based; details: with imipenem 1 μg/ml; 95% inhibition of bacterial growth
Outline: as §5

[10] = tested on: P. aeruginosa MB9798 (efflux+, IMP-1 plasmid); details: for MB9798 MITC95 P. aeruginosa uM Efflux WT: efflux + (MB9798) strain, imipenem at 2 μg/mL, in the presence of a class A, C, D serine β-lactamase inhibitor closely related to relebactam; for Efflux ratio: fold difference between efflux+ (MB9798) and efflux− (MB9799) strains
Outline: (§6)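 Isogenic P. aeruginosa PAO1 strains (efflux+ and multiple-efflux-pump-disrupted) carrying plasmid IMP-1, with inducible AmpC, tested by broth microdilution. Imipenem and/or ceftazidime fixed, usually at CLSI breakpoint, plus fixed class A/C β-lactamase inhibitor; titrated MBL inhibitor concentration restoring susceptibility recorded and compared between strains as efflux fold difference.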

[11] = tested on: P. aeruginosa MB9799 (efflux-, IMP-1 plasmid); type: cell-based, Pseudomonas aeruginosa; details: efflux − (MB9799) strain; imipenem at 2 μg/mL; in the presence of a class A, C, D serine β-lactamase inhibitor closely related to relebactam
Outline: as §6

[12] = MB9798, OprD+, efflux+, MB5919 Trans IMP1 plasmid (CL 5673)
[13] = MB9799, OprD+, efflux−, MB5890 Trans IMP1 plasmid (CL 5673)
[14] = MB9861, OprD+, Efflux+, MB5919 Trans pFlp-Vim1 plasmid
[15] = MB9862, OprD+, efflux−, MB5890 trans pFlp-Vim1
[16] = OprD+, efflux+, MB5919 Trans pFlp-Vim2 plasmid
[17] = OprD+, efflux−, MB5890 Trans pFlp-Vim2 plasmid

Compound | MIC (MB5890 (OprD+, efflux-); MB5890, OprD+, efflux−) [µg/mL] | MIC (MB5919 (OprD+, efflux+); MB5919, OprD+, efflux+) [µg/mL] | MIC [1, 12] [µg/mL] | MIC [2, 13] [µg/mL] | MIC [3, 14] [µg/mL] | MIC [4, 15] [µg/mL] | MIC [5, 16] [µg/mL] | MIC [6, 17] [µg/mL] | IC50 (NDM-1) [nM] | IC50 (IMP-1) [nM] | IC50 (VIM-1) [nM] | IC50 (VIM-2) [nM] | CLB30016 E. coli MITC95 NDM [7] [µM] | IHMA599644 K. pneumoniae MITC95 VIM [8] [µM] | CL5741 S. marcescens MITC95 IMP [9] [µM] | MB9798 MITC95 P. aeruginosa uM Efflux WT [10] [µM] | Efflux ratio [10] | MB9799 MITC95 P. aeruginosa uM Efflux Mutant [11] [µM] | also measured
CC(C)(O/N=C(\C(=O)N[C@@H]1C(=O)N2C(C(=O)[O-])=C(C[n+]3ccccc3)CS[C@H]12)c1csc(N)n1)C(=O)O [CAZ, ceftazidime] | 0.5 (≈ 0.915 µM) | 1 (≈ 1.83 µM) | 256 (≈ 468 µM) | 256 (≈ 468 µM) | >256 | >256 | 128 (≈ 234 µM) | 64 (≈ 117 µM) | – | – | – | – | – | – | – | – | – | – | –
C[C@@H](O)[C@H]1C(=O)N2C(C(=O)O)=C(SCCN=CN)C[C@H]12 [Imipenem, imipenem] | 2 (≈ 6.68 µM) | 4 (≈ 13.4 µM) | 64 (≈ 214 µM) | 32 (≈ 107 µM) | >64 | 64 (≈ 214 µM) | >64 | 32 (≈ 107 µM) | – | – | – | – | – | – | – | – | – | – | –
O=C(N[C@H](CO)[C@H](O)c1ccc([N+](=O)[O-])cc1)C(Cl)Cl [Chloramphenicol, chloramphenicol] | – | – | – | – | – | – | – | – | – | – | – | – | – | – | – | – | – | – | MIC (MB5890 (OprD+, efflux-); Pseudomonas aeruginosa): 1 µg/mL (≈ 3.09 µM); MIC (MB5919 (OprD+, efflux+); Pseudomonas aeruginosa): > 64 µg/mL; MIC ([1]; Pseudomonas aeruginosa): > 64 µg/mL; MIC ([2]; Pseudomonas aeruginosa): 1 µg/mL (≈ 3.09 µM); MIC ([3]; Pseudomonas aeruginosa): > 64 µg/mL; MIC ([4]; Pseudomonas aeruginosa): 2 µg/mL (≈ 6.19 µM); MIC ([5]; Pseudomonas aeruginosa): > 64 µg/mL; MIC ([6]; Pseudomonas aeruginosa): 1 µg/mL (≈ 3.09 µM)
C[C@@H](O)[C@H]1C(=O)N2C(C(=O)O)=C(S[C@@H]3CN[C@H](C(=O)N(C)C)C3)[C@H](C)[C@H]12 [Meropenem, meropenem] | 0.5 (≈ 1.3 µM) | 2 (≈ 5.22 µM) | >64 | 64 (≈ 167 µM) | >64 | 64 (≈ 167 µM) | >64 | 32 (≈ 83.4 µM) | – | – | – | – | – | – | – | – | – | – | –
CC[C@H]1OC(=O)[C@H](C)[C@@H](O[C@H]2C[C@@](C)(OC)[C@@H](O)[C@H](C)O2)[C@H](C)[C@@H](O[C@@H]2O[C@H](C)C[C@H](N(C)C)[C@H]2O)[C@](C)(O)C[C@@H](C)CN(C)[C@H](C)[C@@H](O)[C@]1(C)O [Azithromycin] | – | – | – | – | – | – | – | – | – | – | – | – | – | – | – | – | – | – | MIC (MB5890 (OprD+, efflux-); Pseudomonas aeruginosa): 1 µg/mL (≈ 1.34 µM); MIC (MB5919 (OprD+, efflux+); Pseudomonas aeruginosa): 16 µg/mL (≈ 21.4 µM); MIC ([1]; Pseudomonas aeruginosa): 2 µg/mL (≈ 2.67 µM); MIC ([2]; Pseudomonas aeruginosa): 2 µg/mL (≈ 2.67 µM); MIC ([3]; Pseudomonas aeruginosa): 32 µg/mL (≈ 42.7 µM); MIC ([4]; Pseudomonas aeruginosa): 1 µg/mL (≈ 1.34 µM); MIC ([5]; Pseudomonas aeruginosa): 32 µg/mL (≈ 42.7 µM); MIC ([6]; Pseudomonas aeruginosa): 1 µg/mL (≈ 1.34 µM)
CCN1CCN(C(=O)N[C@@H](C(=O)N[C@@H]2C(=O)N3[C@@H]2SC(C)(C)[C@@H]3C(=O)O)c2ccccc2)C(=O)C1=O [Pipercillin, piperacillin] | 1 (≈ 1.93 µM) | 2 (≈ 3.86 µM) | 4 (≈ 7.73 µM) | 4 (≈ 7.73 µM) | >256 | 128 (≈ 247 µM) | >256 | 128 (≈ 247 µM) | – | – | – | – | – | – | – | – | – | – | –
NCC1CCN(c2ccc(S(=O)(=O)NC[C@H](O)CN)c(S(N)(=O)=O)c2-c2nnn[nH]2)CC1 [Example 34] | – | – | – | – | – | – | – | – | 2.05 | 4.07 | 0.18 | 3.49 | 0.39 | 0.39 | 0.39 | 0.39 | 2.00 | 0.20 | –
NCC1CCN(c2ccc(S(=O)(=O)NC[C@@H](N)CN)c(S(N)(=O)=O)c2-c2nn[nH]n2)CC1 [Example 200, (S)-4-(4-(aminomethyl)piperidin-1-yl)-N1-(2,3-diaminopropyl)-3-(2H-tetrazol-5-yl)benzene-1,2-disulfonamide] | – | – | – | – | – | – | – | – | 3.1 | 4.57 | 0.51 | 8.28 | 0.78 | 3.13 | 1.56 | 50.00 | 1.00 | 50.00 | –
NC[C@@H](O)CNS(=O)(=O)c1ccc(N2CCC(C3COC(=O)N3)CC2)c(-c2nn[nH]n2)c1S(N)(=O)=O (stereo partly drawn) [Example 177, N1-((R)-3-amino-2-hydroxypropyl)-4-(4-(2-oxooxazolidin-4-yl)piperidin-1-yl)-3-(2H-tetrazol-5-yl)benzene-1,2-disulfonamide] | – | – | – | – | – | – | – | – | 0.57 | 0.19 | 0.15 | 0.66 | 6.25 | 6.25 | 3.13 | 1.56 | 1.00 | 1.56 | –
CN(C)[C@H]1CCN(c2ccc(S(=O)(=O)N[C@@H]3CCNC3)c(S(N)(=O)=O)c2-c2nnn[nH]2)C1 [Example 67, 4-[(3S)-3-(dimethylamino)pyrrolidin-1-yl]-N1-[(3R)-pyrrolidin-3-yl]-3-(1H-tetrazol-5-yl)benzene-1,2-disulfonamide] | – | – | – | – | – | – | – | – | 85 | 60.7 | 4.32 | 18.5 | 1.56 | 1.56 | 3.13 | 12.50 | 8.00 | 1.56 | –
